Consider 24 molecules from PMC8138313, “Identification, Selection and Immune Assessment of Liver Stage CD8 T Cell Epitopes From Plasmodium falciparum” (Frontiers in Immunology, 2021).

Where a SMILES comes first, the peptide text is derived from it.

One may read the IC50 as the concentration needed to halve the response being measured. Read a high IC50 as a need for much substance.

Among the targets are HLA A*0201 (Homo sapiens, UniProt P04439, D140Y/D185E/D98H/E176V/E277Q/G131W/G231S/I119V/I121R/I166T/I218V/L300P/L318F/N151K/N90K/P208A/P217A/Q86G/Q94H/R138H/R169H/T345S); HLA A*0101 (Homo sapiens, UniProt P04439, A114D/A174V/A182V/D101N/D185E/E176A/E190D/L180R/Q94H/R68K/S129P/T187R/V100A/V91M/W191G); HLA A*2402 (Homo sapiens, UniProt P04439, D101N/D140Y/D185E/E176V/E190D/F33S/G103R/G107R/I119L/I121M/I306V/K335N/L105A/L180Q/L300P/N151K/N90K/Q86E/Q94H/R106L/R138H/R89G/T104I/T345S/V100E/W191G/Y123F); HLA A*0301 (Homo sapiens, UniProt P04439).

Assay in all cases: HLA class I binding assay (cell-free competition, fluorescence polarization)

For `CC(C)C[C@H](NC(=O)[C@@H]1CCCN1C(=O)[C@H](Cc1ccccc1)NC(=O)[C@H](CC(N)=O)NC(=O)[C@H](Cc1ccccc1)NC(=O)[C@H](CC(N)=O)NC(=O)[C@H](CCC(=O)O)NC(=O)[C@H](CC(C)C)NC(=O)[C@@H](N)Cc1ccccc1)C(=O)O` (H-FLENFNFPL-OH), the IC50 on HLA A*0201 is 3.68 µM; at HLA A*0101 it was more than 1000 µM.

Turning to `CC[C@H](C)[C@H](NC(=O)CNC(=O)[C@H](Cc1ccc(O)cc1)NC(=O)[C@@H](N)Cc1c[nH]cn1)C(=O)N[C@@H](CC(N)=O)C(=O)N1CCC[C@H]1C(=O)N[C@H](C(=O)N[C@@H](CCC(N)=O)C(=O)N[C@@H](CC(C)C)C(=O)O)C(C)C` (H-HYGINPVQL-OH), on HLA A*2402, the IC50 was 6.79 µM.

For the molecule `CC(C)[C@H](NC(=O)[C@H](CCCNC(=N)N)NC(=O)[C@H](CC(N)=O)NC(=O)[C@H](CCCCN)NC(=O)[C@H](Cc1ccc(O)cc1)NC(=O)[C@@H](NC(=O)[C@H](CC(N)=O)NC(=O)[C@H](Cc1ccc(O)cc1)NC(=O)[C@@H](N)Cc1c[nH]cn1)[C@@H](C)O)C(=O)N[C@@H](Cc1ccccc1)C(=O)O` (H-HYNTYKNRVF-OH), the IC50 on HLA A*2402 was 3 µM.

`CC[C@H](C)[C@H](N)C(=O)N[C@@H](Cc1c[nH]c2ccccc12)C(=O)N[C@@H](Cc1ccc(O)cc1)C(=O)N[C@@H](CCCCN)C(=O)N[C@@H](Cc1ccc(O)cc1)C(=O)N[C@H](C(=O)N[C@@H](CCC(=O)O)C(=O)N[C@@H](CO)C(=O)N[C@@H](CC(=O)O)C(=O)N[C@@H](Cc1ccccc1)C(=O)O)[C@@H](C)O` (H-IWYKYTESDF-OH) registered a half-inhibitory concentration (IC50) on HLA A*2402 of 1.12 µM.

Take `CC[C@H](C)[C@H](N)C(=O)N[C@@H](Cc1ccc(O)cc1)C(=O)NCC(=O)N[C@@H](CCCCN)C(=O)NCC(=O)NCC(=O)N[C@@H](Cc1ccccc1)C(=O)N[C@@H](CCC(N)=O)C(=O)N[C@@H](Cc1ccccc1)C(=O)O` (H-IYGKGGFQF-OH): the IC50 on HLA A*2402 came to 0.163 µM.

As to `CC[C@H](C)[C@H](NC(=O)[C@H](CCC(=O)O)NC(=O)[C@H](CC(N)=O)NC(=O)[C@H](CC(C)C)NC(=O)[C@H](CC(C)C)NC(=O)[C@@H]1CCCN1C(=O)[C@@H]1CCCN1C(=O)[C@H](CC(C)C)NC(=O)[C@@H](N)CCCCN)C(=O)O` (H-KLPPLLNEI-OH), the IC50 on HLA A*0201 worked out at 2.66 µM; at HLA A*2402, 0.0887 µM.

Turning to `CC[C@H](C)[C@H](NC(=O)[C@@H]1CCCN1C(=O)[C@H](Cc1ccc(O)cc1)NC(=O)[C@H](CCC(N)=O)NC(=O)[C@H](CC(=O)O)NC(=O)[C@H](CO)NC(=O)[C@H](CCCCN)NC(=O)[C@H](CCSC)NC(=O)[C@@H](N)CCCCN)C(=O)O` (H-KMKSDQYPI-OH), the IC50 came to 3.07 µM at HLA A*0201 and 6.9 µM at HLA A*2402.

On HLA A*2402, `CC[C@H](C)[C@H](NC(=O)[C@H](CCCNC(=N)N)NC(=O)[C@@H]1CCCN1C(=O)[C@H](CC(=O)O)NC(=O)[C@H](Cc1ccc(O)cc1)NC(=O)[C@@H](N)CCCCN)C(=O)N[C@@H](CO)C(=O)NCC(=O)N[C@@H](Cc1c[nH]c2ccccc12)C(=O)O` (H-KYDPRISGW-OH) showed an IC50 of 5.01 µM.

On to `CC(C)C[C@H](N)C(=O)N[C@@H](Cc1ccccc1)C(=O)NCC(=O)N[C@@H](CC(=O)O)C(=O)N[C@@H](CCC(=O)O)C(=O)N[C@@H](CC(N)=O)C(=O)N[C@@H](Cc1ccccc1)C(=O)N[C@@H](CO)C(=O)N[C@@H](Cc1ccccc1)C(=O)O` (H-LFGDENFSF-OH), for which the half-maximal inhibitory concentration (IC50) at HLA A*2402 was 5.87 µM.

As to `CC(C)C[C@H](N)C(=O)N[C@H](C(=O)N[C@@H](Cc1c[nH]cn1)C(=O)N[C@@H](CCCCN)C(=O)N[C@@H](Cc1ccc(O)cc1)C(=O)N[C@@H](CC(N)=O)C(=O)N[C@@H](CCC(=O)O)C(=O)N[C@@H](Cc1ccccc1)C(=O)N[C@H](C(=O)O)C(C)C)[C@@H](C)O` (H-LTHKYNEFV-OH), the IC50 was determined as 2.41 µM on HLA A*0201 and 174 µM at HLA A*0101.

At HLA A*2402, `CSCC[C@H](N)C(=O)N[C@@H](Cc1ccc(O)cc1)C(=O)N[C@@H](Cc1c[nH]cn1)C(=O)N[C@@H](CC(N)=O)C(=O)N[C@@H](CCCCN)C(=O)N[C@@H](CCC(=O)O)C(=O)N[C@@H](Cc1ccccc1)C(=O)N[C@@H](CC(=O)O)C(=O)N[C@@H](Cc1ccccc1)C(=O)O` (H-MYHNKEFDF-OH) had an IC50 of 4.51 µM.

With `CSCC[C@H](NC(=O)[C@@H](N)CC(N)=O)C(=O)N[C@@H](CC(N)=O)C(=O)N[C@@H](Cc1ccc(O)cc1)C(=O)N[C@@H](CCCCN)C(=O)N[C@@H](CCC(N)=O)C(=O)N[C@@H](CC(N)=O)C(=O)N[C@@H](CC(N)=O)C(=O)N[C@@H](Cc1ccccc1)C(=O)O` (H-NMNYKQNNF-OH), the IC50 at HLA A*2402 was 14.7 µM.

On to `CC(C)C[C@H](NC(=O)[C@H](C)NC(=O)[C@H](CC(=O)O)NC(=O)[C@H](Cc1ccccc1)NC(=O)[C@@H](NC(=O)[C@@H](N)CC(N)=O)[C@@H](C)O)C(=O)N[C@@H](Cc1ccc(O)cc1)C(=O)N[C@@H](Cc1ccc(O)cc1)C(=O)N[C@H](C(=O)O)C(C)C` (H-NTFDALYYV-OH), for which the IC50 on HLA A*0201 is 8.76 µM; on HLA A*0101, more than 1000 µM.

On HLA A*2402, `NCCCC[C@H](NC(=O)[C@H](Cc1ccc(O)cc1)NC(=O)[C@@H](N)CC(N)=O)C(=O)N[C@@H](CCC(N)=O)C(=O)N[C@@H](CC(N)=O)C(=O)N[C@@H](CC(N)=O)C(=O)N[C@@H](Cc1ccccc1)C(=O)N1CCC[C@H]1C(=O)N[C@@H](Cc1ccccc1)C(=O)O` (H-NYKQNNFPF-OH) registered an IC50 of 9.49 µM.

In turn, `CC[C@H](C)[C@H](NC(=O)[C@H](CC(N)=O)NC(=O)[C@H](Cc1ccc(O)cc1)NC(=O)[C@H](CCC(N)=O)NC(=O)[C@H](CC(=O)O)NC(=O)[C@H](CC(N)=O)NC(=O)[C@H](CC(N)=O)NC(=O)[C@H](Cc1ccc(O)cc1)NC(=O)[C@@H](N)CC(N)=O)C(=O)O` (H-NYNNDQYNI-OH) registered an IC50 at HLA A*2402 of 6.54 µM.

Molecule `CC(C)C[C@H](NC(=O)[C@H](Cc1ccccc1)NC(=O)[C@@H]1CCCN1)C(=O)N[C@@H](CCCCN)C(=O)N[C@@H](CO)C(=O)NCC(=O)N[C@@H](Cc1ccccc1)C(=O)N[C@H](C(=O)N[C@@H](Cc1ccccc1)C(=O)O)[C@@H](C)O` (H-PFLKSGFTF-OH) came in with a half-maximal inhibitory concentration (IC50) on HLA A*2402 of 8.32 µM.

As to `N=C(N)NCCC[C@H](NC(=O)[C@H](Cc1ccc(O)cc1)NC(=O)[C@H](CCCCN)NC(=O)[C@@H]1CCCN1C(=O)[C@H](Cc1c[nH]cn1)NC(=O)[C@@H](N)CO)C(=O)N[C@@H](CC(N)=O)C(=O)N[C@@H](Cc1ccccc1)C(=O)N[C@@H](CCCCN)C(=O)N[C@@H](Cc1ccccc1)C(=O)O` (H-SHPKYRNFKF-OH), the IC50 at HLA A*2402 was 16.6 µM.

Regarding `CSCC[C@H](NC(=O)[C@H](CC(N)=O)NC(=O)[C@H](CCC(N)=O)NC(=O)[C@H](CC(N)=O)NC(=O)[C@H](C)NC(=O)[C@H](CCSC)NC(=O)[C@@H](N)[C@@H](C)O)C(=O)N[C@@H](CC(N)=O)C(=O)N[C@@H](Cc1ccc(O)cc1)C(=O)O` (H-TMANQNMNY-OH), the IC50 at HLA A*0301 was determined as 0.943 µM; on HLA A*0101 it was 2.02 µM.

As for `CC(C)[C@H](NC(=O)[C@H](CO)NC(=O)[C@H](CCC(=O)O)NC(=O)[C@H](Cc1ccccc1)NC(=O)[C@H](Cc1ccccc1)NC(=O)[C@@H](NC(=O)[C@@H](N)[C@@H](C)O)[C@@H](C)O)C(=O)N[C@@H](CO)C(=O)N[C@@H](Cc1ccc(O)cc1)C(=O)O` (H-TTFFESVSY-OH), the IC50 at HLA A*0301 was 658 µM; on HLA A*0101 it was 338 µM.

In the case of `CC[C@H](C)[C@H](NC(=O)[C@H](CO)NC(=O)[C@H](Cc1ccc(O)cc1)NC(=O)[C@@H](N)[C@@H](C)O)C(=O)N[C@@H](Cc1ccc(O)cc1)C(=O)N[C@H](C(=O)N[C@@H](CC(N)=O)C(=O)N[C@@H](Cc1ccccc1)C(=O)N[C@@H](CCCCN)C(=O)N[C@@H](CC(N)=O)C(=O)O)[C@@H](C)O` (H-TYSIYTNFKN-OH), the IC50 at HLA A*2402 was 26.6 µM.

`C[C@@H](O)[C@H](NC(=O)[C@H](Cc1ccc(O)cc1)NC(=O)[C@H](CCCCN)NC(=O)[C@H](Cc1ccc(O)cc1)NC(=O)[C@@H](N)Cc1c[nH]c2ccccc12)C(=O)N[C@@H](CCC(=O)O)C(=O)N[C@@H](CO)C(=O)N[C@@H](CC(=O)O)C(=O)N[C@@H](Cc1ccccc1)C(=O)O` (H-WYKYTESDF-OH) displayed an IC50 on HLA A*2402 of 2.51 µM.

Consider `CC(C)[C@H](NC(=O)[C@H](Cc1ccccc1)NC(=O)[C@H](CCC(N)=O)NC(=O)[C@H](Cc1ccccc1)NC(=O)CNC(=O)CNC(=O)[C@H](CCCCN)NC(=O)CNC(=O)[C@@H](N)Cc1ccc(O)cc1)C(=O)N[C@@H](Cc1ccccc1)C(=O)O` (H-YGKGGFQFVF-OH), for which the IC50 at HLA A*2402 was determined as 0.231 µM.

On to `CC[C@H](C)[C@H](NC(=O)[C@H](Cc1ccc(O)cc1)NC(=O)[C@@H]1CCCN1C(=O)[C@@H]1CCCN1C(=O)[C@H](CC(C)C)NC(=O)CNC(=O)[C@@H](NC(=O)[C@@H](NC(=O)[C@@H](N)Cc1ccc(O)cc1)[C@@H](C)O)[C@@H](C)CC)C(=O)O` (H-YTIGLPPYI-OH), for which the IC50 on HLA A*0201 worked out at 2.46 µM; on HLA A*2402, 6.57 µM.

The molecule `CC[C@H](C)[C@H](NC(=O)[C@@H](NC(=O)[C@@H]1CCCN1C(=O)[C@H](Cc1ccc(O)cc1)NC(=O)[C@@H](N)Cc1ccc(O)cc1)[C@@H](C)CC)C(=O)N[C@@H](CCCNC(=N)N)C(=O)N[C@@H](CCCCN)C(=O)N[C@@H](CCC(N)=O)C(=O)N[C@@H](Cc1ccccc1)C(=O)O` (H-YYPIIRKQF-OH) registered an IC50 at HLA A*2402 of 0.101 µM.
